The values below come from patent US4482566A, “Substituted aminoalkylbenzene type lower acylamides” (Teikoku Hormone Mfg. Co., Ltd., priority 1979, dated 1984).

One data set is described as follows: Acute toxicity. Conditions: mouse, in vivo, po, SLC-ddY male mice of aging 4 weeks. The method, then:
To test the acute toxicity of each compound (A), (B) and (C), LD50 was determined using SLC-ddY male mice of aging 4 weeks.

Data set [1] deals with gastric acid secretion induced by histamine. The data set can be described thus: Inhibitory action against the gastric acid secretion induced by histamine (perfused stomach, anesthetized rats). In kind it is in vivo. Conditions: Rattus norvegicus, 1 h; male Donryu rats, urethane anesthesia; compound injected before histamine dihydrochloride 5 mg/kg i.v.; acid output during 60 min; read-out: ED50, dose to inhibit 50% of acid output of the control. As for the experimental part:
Inhibitory action of a test compound against the gastric acid secretion induced by histamine was determined according to the method of Ghosh and Schild (M. N. Ghosh and H. O. Schild: Br. J. Pharmacol. 13, 54, 1958) with some modifications. Male Donryu rats weighing 200±10 g were deprived of food for 24 hr prior to the experiments, with water ad lib. Under the anesthesia with 1.2 g/kg of subcutaneous urethane, trachea and cervical vein were cannulated. With midline opening, the duodenum immediately below the junction with pylorus was incised and after the stomach was flashed with saline for several times, the polyethylene tube was inserted into the pylorus through the incision, and ligated with surrounding tissues keeping the blood vessels intact. The polyvinyl tube was inserted into the mouth up to the forestomach through the esophagus and ligated at the cervical level. Saline solution kept at 35° C. was perfused through the polyvinyl tube at the rate of 1 ml/min, and the perfusate was collected through the polyethylene tube of the pylorus. The perfusate was collected for 30 min and was titrated by 0.01N NaOH with phenolphthalein as an indicator to obtain a total acid output(mEq). Subsequently, the perfusate was collected for every 30 min. After the acid output became constant, the stomach was perfused for further 60 min. After that, in the control group, 0.1 ml of saline per 100 g of body weight was intravenously injected, 10 min later 5 mg/kg of histamine dihydrochloride was injected intravenously. The perfusate for 60 min after histamine injection was collected and determined the acidity. The amount of acid output during 60 min after histamine injection subtracted that for 60 min before histamine was regarded as the acid output response to histamine. In the test groups, following the injection of three compounds (A), (B) and (C) instead of saline, 5 mg/kg of histamine dihydrochloride was injected and acid output was determined. Decreased ratio of the acid output to the control was calculated as the response to the test compound. […]

In the next data set the target is T1, histamine H2 receptor (Cavia porcellus, UniProt P47747).
T1 construct: spontaneously beating atria of guinea pig in vitro; from tissue; host or cells: spontaneously beating guinea pig atria
Briefly: Blocking action on histamine H2 receptor in vitro (positive chronotropic effect of histamine in spontaneously beating atria). Conditions: negative logarithm of concentration required to shift dose-response of histamine to the right by 2-fold; guinea pig atria; read-out: pA2 (converted). As for the experimental part: Histamine H2 receptor blocking activity of the compound was determined by obtaining the dose-response relationship of the positive chronotropic effect of histamine in spontaneously beating atria of guinea pig in vitro, in the absence and in the presence of a test compound. […] E. J. Ariens. Molecular Pharmacology, vol. 1, 153-156 (1964), Academic Press, New York).

T1 sequence (P47747 whole entry): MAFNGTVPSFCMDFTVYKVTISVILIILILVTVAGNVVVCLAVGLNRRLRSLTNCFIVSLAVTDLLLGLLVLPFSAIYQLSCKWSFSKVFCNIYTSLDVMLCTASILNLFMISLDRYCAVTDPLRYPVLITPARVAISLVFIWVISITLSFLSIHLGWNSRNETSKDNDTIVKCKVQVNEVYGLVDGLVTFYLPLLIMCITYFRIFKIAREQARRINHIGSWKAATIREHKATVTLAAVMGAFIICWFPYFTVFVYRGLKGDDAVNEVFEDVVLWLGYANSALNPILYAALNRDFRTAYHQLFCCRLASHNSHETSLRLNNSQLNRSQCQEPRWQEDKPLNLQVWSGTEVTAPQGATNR

As usually defined, the LD50 is the dose at which mortality reaches 50%. Read a high LD50 as lower toxicity. The term ED50 denotes the dose that gives a 50% effect, or the effect in half of the subjects. In the data set “Acute toxicity”, `O=C(NCCCOc1cccc(CN2CCCC2)c1)c1cccnc1` [A] showed an LD50 of over 1000 mg/kg. Further, the ED50 in data set [1] was determined as 1.25 mg/kg. For the molecule `O=C(NCCCOc1cccc(CN2CCCC2)c1)c1cccnc1` [Example 1], the Kb at histamine H2 receptor is 0.129 µM.

Take `O=C(NCCCOc1cccc(CN2CCCC2)c1)c1ccccc1` [Example 2]: the Kb on histamine H2 receptor is 0.191 µM. Same read-out and setting: the result for `O=C(NCCCOc1cccc(CN2CCCC2)c1)c1cccs1` [Example 3] reads 0.138 µM; that for `CC(=O)NCCCOc1cccc(CN2CCCC2)c1` [Example 4], 0.195 µM; that for `COC(=O)c1ccc(C(=O)NCCCOc2cccc(CN3CCCC3)c2)cc1` [Example 5], 0.0813 µM. Same read-out and setting: the result for `O=CNCCCOc1cccc(CN2CCCC2)c1` [Example 6] reads 0.17 µM; that for `O=C(NCCCOc1cccc(CN2CCCC2)c1)c1ccc([N+](=O)[O-])cc1` [Example 7], 0.1 µM; that for `O=C(NCCCOc1cccc(CN2CCCC2)c1)c1cc(-c2ccccc2)on1` [Example 8], 0.186 µM. `CC(=O)NCCCOc1cccc(CN2CCCC2)c1` [compound 4, 3-(3-acetamidopropoxy)-1-(1-pyrrolidinylmethyl)benzene]: the LD50 in “Acute toxicity” is over 1000 mg/kg. In addition, the ED50 in data set [1] worked out at 1.65 mg/kg. The corresponding values for `O=CNCCCOc1cccc(CN2CCCC2)c1` [compound 6] are over 1000 mg/kg and 0.84 mg/kg.
